Laboratory results taken from ChEMBL document CHEMBL1132759, “The flavanolignan silybin and its hemisynthetic derivatives, a novel series of potential modulators of P-glycoprotein” (Bioorg Med Chem Lett, 2000).

How the values were obtained:
[1] = biological target: ATP-dependent translocase ABCB1 (Mus musculus, UniProt P21447); test: Compound was tested for the binding affinity towards recombinant NBD2 C-terminal cytosolic nucleotide-binding domain of mouse P-Glycoprotein
[2] = Change in Fmax was determined; format: functional

Sequence of ATP-dependent translocase ABCB1 (P21447 whole entry, the tested form may be a part): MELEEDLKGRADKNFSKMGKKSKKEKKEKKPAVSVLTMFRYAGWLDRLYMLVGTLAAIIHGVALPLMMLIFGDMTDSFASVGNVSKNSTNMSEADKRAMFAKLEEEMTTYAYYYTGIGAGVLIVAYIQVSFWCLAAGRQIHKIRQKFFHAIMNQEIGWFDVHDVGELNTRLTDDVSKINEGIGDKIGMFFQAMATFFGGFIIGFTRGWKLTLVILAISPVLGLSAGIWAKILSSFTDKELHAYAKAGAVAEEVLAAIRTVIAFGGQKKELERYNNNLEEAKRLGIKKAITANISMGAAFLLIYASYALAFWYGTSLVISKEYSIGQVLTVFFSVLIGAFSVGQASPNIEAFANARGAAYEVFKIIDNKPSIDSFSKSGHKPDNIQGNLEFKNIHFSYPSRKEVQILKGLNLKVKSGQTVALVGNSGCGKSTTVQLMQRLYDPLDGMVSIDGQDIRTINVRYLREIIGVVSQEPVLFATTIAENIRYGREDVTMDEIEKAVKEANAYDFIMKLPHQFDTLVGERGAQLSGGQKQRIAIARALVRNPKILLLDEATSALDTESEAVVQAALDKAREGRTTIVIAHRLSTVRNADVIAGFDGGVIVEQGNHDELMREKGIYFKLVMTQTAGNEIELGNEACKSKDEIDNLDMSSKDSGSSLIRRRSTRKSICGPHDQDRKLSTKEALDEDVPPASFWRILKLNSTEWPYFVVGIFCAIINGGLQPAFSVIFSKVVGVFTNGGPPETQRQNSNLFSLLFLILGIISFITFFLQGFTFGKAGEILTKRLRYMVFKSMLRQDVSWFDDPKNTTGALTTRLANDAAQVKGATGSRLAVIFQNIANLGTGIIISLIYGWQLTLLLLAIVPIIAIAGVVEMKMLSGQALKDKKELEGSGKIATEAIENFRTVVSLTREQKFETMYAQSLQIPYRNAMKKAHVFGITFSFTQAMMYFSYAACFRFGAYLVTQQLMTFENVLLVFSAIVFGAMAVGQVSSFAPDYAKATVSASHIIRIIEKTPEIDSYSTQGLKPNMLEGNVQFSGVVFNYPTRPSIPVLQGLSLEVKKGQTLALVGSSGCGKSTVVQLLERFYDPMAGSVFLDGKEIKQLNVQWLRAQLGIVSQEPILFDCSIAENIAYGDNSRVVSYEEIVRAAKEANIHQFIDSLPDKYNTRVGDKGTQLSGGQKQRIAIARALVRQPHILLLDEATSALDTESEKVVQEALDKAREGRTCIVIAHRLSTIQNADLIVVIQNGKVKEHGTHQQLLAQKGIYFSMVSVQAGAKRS

Compound | Kd [1] | Delta Fmax [2]
O=C1C[C@@H](c2ccc(O)cc2)Oc2cc(O)cc(O)c21 [NARINGENIN] | 28500 nM | –
COc1cc(C2Oc3cc(-c4oc5cc(O)c(CC=C(C)C)c(O)c5c(=O)c4O)ccc3OC2CO)ccc1O (centres undefined) | 370 nM | 90.3%
COc1cc(C2Oc3cc([C@H]4Oc5cc(O)cc(O)c5C(=O)[C@@H]4O)ccc3OC2CO)ccc1O (some centres undefined) [SILIBININ] | 6800 nM | 91%
COc1cc(C2Oc3cc(-c4oc5cc(O)cc(O)c5c(=O)c4O)ccc3OC2CO)ccc1O (centres undefined) | – | 91%
COc1cc(C2Oc3cc(-c4oc5c(CC=C(C)C)c(O)cc(O)c5c(=O)c4O)ccc3OC2CO)ccc1O (centres undefined) | 250 nM | 93.4%
COc1ccc(-c2oc3cc(O)cc(O)c3c(=O)c2O)cc1 [KAEMPFERIDE] | 4500 nM | –
O=C1c2c(O)cc(O)cc2O[C@H](c2ccc(O)c(O)c2)[C@H]1O | – | 101%
COc1cc(C2Oc3cc(-c4oc5c(C/C=C(\C)CCC=C(C)C)c(O)cc(O)c5c(=O)c4O)ccc3OC2CO)ccc1O (centres undefined) | 120 nM | 88.1%
COc1cc(C2Oc3cc(-c4oc5cc(O)c(C/C=C(\C)CCC=C(C)C)c(O)c5c(=O)c4O)ccc3OC2CO)ccc1O (centres undefined) | 180 nM | 83.3%
